# Calls of active or inactive are those of the source. No cut-off for these calls is given here.
# How the values were obtained:
# [1] = test system: Burkholderia pseudomallei; assay: Antibacterial activity against Burkholderia pseudomallei 1026b infected in BALB/c mouse assessed as protection against bacterial infection at 25 mg/kg, ip administered as single dose 6 hrs postinfection; assay type: functional; details: route intraperitoneal
# [2] = test system: Burkholderia pseudomallei; assay: Antibacterial activity against Burkholderia pseudomallei 1026b infected in mouse AMJ.2 cells assessed as intracellular bacterial count at 10 ug/ml measured on 24 hrs postinfection by serial dilution plating technique (reference value: 2 X 10^4 CFU/ml); assay type: functional
# [3] = test system: Burkholderia pseudomallei; assay: Antibacterial activity against Burkholderia pseudomallei 1026b infected in mouse AMJ.2 cells assessed as decrease in intracellular bacterial growth at 1 ug/ml after 24 hrs by serial dilution plating technique in presence of 100 U/ml murine recombinant IFN-gamma; assay type: functional, organism-based
# [4] = test system: Burkholderia pseudomallei; assay: Antibacterial activity against Burkholderia pseudomallei 1026b infected in mouse AMJ.2 cells assessed as inhibition of bacterial replication at <= 10 ug/ml after 24 hrs by serial dilution plating technique; assay type: functional, organism-based
# [5] = test system: Burkholderia pseudomallei; assay: Antibacterial activity against Burkholderia pseudomallei 1026b infected in BALB/c mouse assessed as increase survival rate at 25 mg/kg, ip administered 6 hrs postinfection at 12 hrs interval for 3 days measured on day 20; assay type: functional, organism-based; parameters: dose 25 mg/kg
# [6] = test system: Burkholderia pseudomallei; assay: Antibacterial activity against Burkholderia pseudomallei 1026b infected in BALB/c mouse assessed as increase in survival rate at 25 mg/kg, ip administered 6 hrs postinfection at 12 hrs interval for 3 days measured on day 60 in presence of murine recombinant IFN-gamma; assay type: functional, organism-based; parameters: dose 25 mg/kg
# [7] = test system: Burkholderia pseudomallei; assay: Antibacterial activity against Burkholderia pseudomallei 1026b infected in BALB/c mouse assessed as decrease in bacterial count in spleen at 25 mg/kg, ip administered 6 hrs postinfection at 12 hrs interval for 3 days measured on day 65 in presence of murine recombinant IFN-gamma; assay type: functional, organism-based; parameters: dose 25 mg/kg
# [8] = test system: Burkholderia pseudomallei; assay: Antibacterial activity against Burkholderia pseudomallei 1026b infected in BALB/c mouse assessed as survival rate at 25 mg/kg, ip administered 6 hrs postinfection at 12 hrs interval for 3 days measured on day 20; assay type: functional; details: route intraperitoneal
# [9] = test system: Burkholderia pseudomallei; assay: Antibacterial activity against Burkholderia pseudomallei 1026b infected in mouse AMJ.2 cells assessed as decrease in intracellular bacterial growth at 10 ug/ml after 24 hrs by serial dilution plating technique in presence of 1 U/ml murine recombinant IFN-gamma; assay type: functional, organism-based
smiles,measurement,setting,value
CC(C)(O/N=C(\C(=O)N[C@@H]1C(=O)N2C(C(=O)[O-])=C(C[n+]3ccccc3)CS[C@H]12)c1csc(N)n1)C(=O)O [CEFTAZIDIME],Activity,[1],20%
same,CFU,[2],>1 ×10⁶ /ml
same,inhibition,[3],Active
same,inhibition,[4],inactive
same,Activity,[5],inactive
same,Activity,[6],Active
same,inhibition,[7],Active
same,Activity,[8],10%
same,inhibition,[9],Active

# Reference: ChEMBL document CHEMBL1255439 (2010)
